Laboratory results taken from ChEMBL document CHEMBL4138174, “Design and synthesis of novel C14-urea-tetrandrine derivatives with potent anti-cancer activity” (Eur J Med Chem, 2018).

What was measured:
Assay type in all cases: functional, cell-based
HEL = assay: Cytotoxicity against human HEL cells assessed as reduction in cell viability after 48 hrs by MTT assay
K562 = assay: Cytotoxicity against human K562 cells assessed as reduction in cell viability after 48 hrs by MTT assay
MDA-MB-231 = assay: Cytotoxicity against human MDA-MB-231 cells assessed as reduction in cell viability after 48 hrs by MTT assay
PC-3 = assay: Cytotoxicity against human PC3 cells assessed as reduction in cell viability after 48 hrs by MTT assay
[1] = Cytotoxicity against human WM9 cells assessed as reduction in cell viability after 48 hrs by MTT assay

SMILES | IC50 (HEL; Homo sapiens, HEL, 48 h) | IC50 (K562; Homo sapiens, K562, 48 h) | IC50 (MDA-MB-231; Homo sapiens, MDA-MB-231, 48 h) | IC50 (PC-3; Homo sapiens, PC-3, 48 h) | IC50 ([1]; Homo sapiens, WM9, 48 h) | IC50 (K562; k562) | IC50 (PC-3; pc-3) | IC50 (HEL; hel) | IC50 (MDA-MB-231; mda-mb-231) | IC50 [1]
COc1cc(NC(=O)Nc2ccc(C)cc2)c2cc1Oc1ccc(cc1)C[C@H]1c3cc(c(OC)cc3CCN1C)Oc1c(OC)c(OC)cc3c1[C@H](C2)N(C)CC3 | 8.08 µM | 2.89 µM | 7.28 µM | 3.85 µM | 5.13 µM | – | – | – | – | –
COc1cc(NC(=S)NC(C)C)c2cc1Oc1ccc(cc1)C[C@H]1c3cc(c(OC)cc3CCN1C)Oc1c(OC)c(OC)cc3c1[C@H](C2)N(C)CC3 | 4.22 µM | 3.19 µM | 5.57 µM | 2.1 µM | 3.63 µM | – | – | – | – | –
CCCCNC(=O)Nc1cc(OC)c2cc1C[C@H]1c3c(cc(OC)c(OC)c3Oc3cc4c(cc3OC)CCN(C)[C@H]4Cc3ccc(cc3)O2)CCN1C | 4.53 µM | – | 5.4 µM | 0.88 µM | 5.12 µM | 6.88 µM | – | – | – | –
COc1cc(NC(=O)Nc2ccc([N+](=O)[O-])cc2)c2cc1Oc1ccc(cc1)C[C@H]1c3cc(c(OC)cc3CCN1C)Oc1c(OC)c(OC)cc3c1[C@H](C2)N(C)CC3 | 6.54 µM | 1.84 µM | 5.12 µM | 6.85 µM | 4.65 µM | – | – | – | – | –
CCCCNC(=S)Nc1cc(OC)c2cc1C[C@H]1c3c(cc(OC)c(OC)c3Oc3cc4c(cc3OC)CCN(C)[C@H]4Cc3ccc(cc3)O2)CCN1C [listing 1 of 2 here] | 3.68 µM | 2.39 µM | 5.66 µM | – | 4.27 µM | – | 3.03 µM | – | – | –
COc1cc(NC(=O)NCCc2ccccc2)c2cc1Oc1ccc(cc1)C[C@H]1c3cc(c(OC)cc3CCN1C)Oc1c(OC)c(OC)cc3c1[C@H](C2)N(C)CC3 | 8.93 µM | 4.94 µM | 9.76 µM | 5.9 µM | 7.68 µM | – | – | – | – | –
COc1cc(NC(=S)Nc2ccc(F)cc2)c2cc1Oc1ccc(cc1)C[C@H]1c3cc(c(OC)cc3CCN1C)Oc1c(OC)c(OC)cc3c1[C@H](C2)N(C)CC3 | – | – | – | – | – | 0.88 µM | 0.33 µM | 1.38 µM | 1.56 µM | 1.63 µM
COc1cc(NC(=O)Nc2ccc(OC(F)(F)F)cc2)c2cc1Oc1ccc(cc1)C[C@H]1c3cc(c(OC)cc3CCN1C)Oc1c(OC)c(OC)cc3c1[C@H](C2)N(C)CC3 | 4.02 µM | 1.25 µM | 4.95 µM | 0.74 µM | 3.91 µM | – | – | – | – | –
COc1ccc2cc1Oc1ccc(cc1)C[C@H]1c3cc(c(OC)cc3CCN1C)Oc1c(OC)c(OC)cc3c1[C@H](C2)N(C)CC3 | – | – | – | – | – | 8.87 µM | 4.45 µM | 10.1 µM | 13.6 µM | 7.39 µM
COc1cc(NC(=O)N2CCOCC2)c2cc1Oc1ccc(cc1)C[C@H]1c3cc(c(OC)cc3CCN1C)Oc1c(OC)c(OC)cc3c1[C@H](C2)N(C)CC3 | 4.67 µM | 4.33 µM | 7.29 µM | 3.78 µM | 5.54 µM | – | – | – | – | –
COc1cc(NC(=S)Nc2ccc(C)cc2)c2cc1Oc1ccc(cc1)C[C@H]1c3cc(c(OC)cc3CCN1C)Oc1c(OC)c(OC)cc3c1[C@H](C2)N(C)CC3 | 6.04 µM | 2.23 µM | 3.61 µM | 5.36 µM | 5.52 µM | – | – | – | – | –
CCCNC(=O)Nc1cc(OC)c2cc1C[C@H]1c3c(cc(OC)c(OC)c3Oc3cc4c(cc3OC)CCN(C)[C@H]4Cc3ccc(cc3)O2)CCN1C | 4.79 µM | 5.09 µM | 6.31 µM | 0.73 µM | 4.83 µM | – | – | – | – | –
COc1cc(NC(=O)NCc2ccccc2)c2cc1Oc1ccc(cc1)C[C@H]1c3cc(c(OC)cc3CCN1C)Oc1c(OC)c(OC)cc3c1[C@H](C2)N(C)CC3 | 8.02 µM | 4.59 µM | 6.99 µM | 5.73 µM | 6.14 µM | – | – | – | – | –
COc1cc(NC(=O)N2CCN(S(C)(=O)=O)C2=O)c2cc1Oc1ccc(cc1)C[C@H]1c3cc(c(OC)cc3CCN1C)Oc1c(OC)c(OC)cc3c1[C@H](C2)N(C)CC3 | 5.51 µM | 3.06 µM | 4.33 µM | 2.17 µM | 3.76 µM | – | – | – | – | –
COc1cc(NC(=O)Nc2ccc(F)cc2)c2cc1Oc1ccc(cc1)C[C@H]1c3cc(c(OC)cc3CCN1C)Oc1c(OC)c(OC)cc3c1[C@H](C2)N(C)CC3 | 4.46 µM | 1.81 µM | 5.02 µM | – | 4.19 µM | – | 2.07 µM | – | – | –
COc1cc(NC(=O)NC2CCCC2)c2cc1Oc1ccc(cc1)C[C@H]1c3cc(c(OC)cc3CCN1C)Oc1c(OC)c(OC)cc3c1[C@H](C2)N(C)CC3 | 11.6 µM | 6.42 µM | 13.2 µM | 1.76 µM | 6.45 µM | – | – | – | – | –
COc1cc(NC(=O)Nc2cccc(C)c2)c2cc1Oc1ccc(cc1)C[C@H]1c3cc(c(OC)cc3CCN1C)Oc1c(OC)c(OC)cc3c1[C@H](C2)N(C)CC3 | 4.86 µM | 2.15 µM | 10.4 µM | 3.15 µM | 5.07 µM | – | – | – | – | –
CCCCNC(=S)Nc1cc(OC)c2cc1C[C@H]1c3c(cc(OC)c(OC)c3Oc3cc4c(cc3OC)CCN(C)[C@H]4Cc3ccc(cc3)O2)CCN1C [listing 2 of 2 here] | – | – | – | – | – | 2.02 µM | 1.05 µM | 1.96 µM | 3.24 µM | 2.84 µM

SMILES | IC50 (HEL; Homo sapiens, HEL, 48 h) | IC50 (K562; Homo sapiens, K562, 48 h) | IC50 (MDA-MB-231; Homo sapiens, MDA-MB-231, 48 h) | IC50 (PC-3; Homo sapiens, PC-3, 48 h) | IC50 ([1]; Homo sapiens, WM9, 48 h) | IC50 (K562; k562) | IC50 (PC-3; pc-3) | IC50 (HEL; hel) | IC50 (MDA-MB-231; mda-mb-231) | IC50 [1]
CNC(=O)Nc1cc(OC)c2cc1C[C@H]1c3c(cc(OC)c(OC)c3Oc3cc4c(cc3OC)CCN(C)[C@H]4Cc3ccc(cc3)O2)CCN1C | 9.42 µM | 9.21 µM | 14.5 µM | 1.71 µM | 3.09 µM | – | – | – | – | –
O=c1[nH]cc(F)c(=O)[nH]1 [FLUOROURACIL] | 16 µM | 9.49 µM | 17.7 µM | 19.9 µM | 15.8 µM | – | – | – | – | –
COc1cc(NC(=O)NCCCl)c2cc1Oc1ccc(cc1)C[C@H]1c3cc(c(OC)cc3CCN1C)Oc1c(OC)c(OC)cc3c1[C@H](C2)N(C)CC3 | 9.34 µM | 6.24 µM | 13.3 µM | 4.91 µM | 4.18 µM | – | – | – | – | –
COc1cc(NC(=S)Nc2ccc(Cl)cc2)c2cc1Oc1ccc(cc1)C[C@H]1c3cc(c(OC)cc3CCN1C)Oc1c(OC)c(OC)cc3c1[C@H](C2)N(C)CC3 | 7.18 µM | 2.43 µM | 4.35 µM | 6.08 µM | 6.93 µM | – | – | – | – | –
COc1cc(NC(=O)Nc2ccc(C(F)(F)F)cc2)c2cc1Oc1ccc(cc1)C[C@H]1c3cc(c(OC)cc3CCN1C)Oc1c(OC)c(OC)cc3c1[C@H](C2)N(C)CC3 | 4.74 µM | 1.74 µM | 5.35 µM | 5.2 µM | 4.15 µM | – | – | – | – | –
COc1ccc(NC(=O)Nc2cc(OC)c3cc2C[C@H]2c4c(cc(OC)c(OC)c4Oc4cc5c(cc4OC)CCN(C)[C@H]5Cc4ccc(cc4)O3)CCN2C)cc1 | 6.65 µM | 3.22 µM | 10.2 µM | 4.67 µM | 5.01 µM | – | – | – | – | –
COc1cc(NC(=O)Nc2cccc(Cl)c2)c2cc1Oc1ccc(cc1)C[C@H]1c3cc(c(OC)cc3CCN1C)Oc1c(OC)c(OC)cc3c1[C@H](C2)N(C)CC3 | 6.47 µM | 2.02 µM | 9.06 µM | 4.54 µM | 3.16 µM | – | – | – | – | –
COc1cc(NC(=O)NC(C)(C)C)c2cc1Oc1ccc(cc1)C[C@H]1c3cc(c(OC)cc3CCN1C)Oc1c(OC)c(OC)cc3c1[C@H](C2)N(C)CC3 | 11.9 µM | 4.89 µM | 12.6 µM | 2.97 µM | 5.37 µM | – | – | – | – | –
COc1ccc(NC(=S)Nc2cc(OC)c3cc2C[C@H]2c4c(cc(OC)c(OC)c4Oc4cc5c(cc4OC)CCN(C)[C@H]5Cc4ccc(cc4)O3)CCN2C)cc1 | 7.38 µM | 2.69 µM | 7.4 µM | 5.27 µM | 5.4 µM | – | – | – | – | –
COc1cc(NC(=O)NC2CCCCC2)c2cc1Oc1ccc(cc1)C[C@H]1c3cc(c(OC)cc3CCN1C)Oc1c(OC)c(OC)cc3c1[C@H](C2)N(C)CC3 | 14.8 µM | 5.56 µM | 16.6 µM | 3.78 µM | 10.4 µM | – | – | – | – | –
COc1cc(NC(=O)N2c3ccccc3Sc3ccccc32)c2cc1Oc1ccc(cc1)C[C@H]1c3cc(c(OC)cc3CCN1C)Oc1c(OC)c(OC)cc3c1[C@H](C2)N(C)CC3 | 3.32 µM | 2.49 µM | 4.14 µM | 2.95 µM | 3.21 µM | – | – | – | – | –
COc1ccc2cc1Oc1ccc(cc1)C[C@H]1c3cc(c(OC)cc3CCN1C)Oc1c(OC)c(OC)cc3c1[C@H](C2)N(C)CC3 [FANCHININ] | 16.8 µM | 13.8 µM | 22 µM | 7.87 µM | 11 µM | – | – | – | – | –
COc1cc(NC(=O)Nc2ccc(Cl)c(C(F)(F)F)c2)c2cc1Oc1ccc(cc1)C[C@H]1c3cc(c(OC)cc3CCN1C)Oc1c(OC)c(OC)cc3c1[C@H](C2)N(C)CC3 | 5.41 µM | 2.05 µM | 10.1 µM | 4.7 µM | 3.1 µM | – | – | – | – | –
CCNC(=O)Nc1cc(OC)c2cc1C[C@H]1c3c(cc(OC)c(OC)c3Oc3cc4c(cc3OC)CCN(C)[C@H]4Cc3ccc(cc3)O2)CCN1C | 4.02 µM | 3.2 µM | 5.83 µM | 0.98 µM | 2.31 µM | – | – | – | – | –
C=C(C)C(=O)OCCNC(=O)Nc1cc(OC)c2cc1C[C@H]1c3c(cc(OC)c(OC)c3Oc3cc4c(cc3OC)CCN(C)[C@H]4Cc3ccc(cc3)O2)CCN1C | 12.3 µM | 8.01 µM | 15.8 µM | 7.82 µM | 1.83 µM | – | – | – | – | –
COc1cc(NC(=O)Nc2cccc3ccccc23)c2cc1Oc1ccc(cc1)C[C@H]1c3cc(c(OC)cc3CCN1C)Oc1c(OC)c(OC)cc3c1[C@H](C2)N(C)CC3 | 5.21 µM | 1.97 µM | 4.61 µM | 1.31 µM | 3.93 µM | – | – | – | – | –
CNC(=S)Nc1cc(OC)c2cc1C[C@H]1c3c(cc(OC)c(OC)c3Oc3cc4c(cc3OC)CCN(C)[C@H]4Cc3ccc(cc3)O2)CCN1C | 9.19 µM | 7.35 µM | 13.6 µM | 6.43 µM | 7.37 µM | – | – | – | – | –
